Molecules are shown by their SMILES. Counter-ions that a name gives are not always drawn.

The values below come from patent publication US7956082B2, “Indole derivative having PGD2 receptor antagonist activity” (Shionogi & Co., Ltd, priority 2005, dated 2011).

The target in data set [1] is T1, DP receptor (Homo sapiens, UniProt Q13258).
T1 construct: endogenous in cells; host or cells: washed platelets from peripheral blood of a healthy volunteer (whole platelets in A1, platelet membrane fraction in A2)
T1 sequence (Q13258 1-359): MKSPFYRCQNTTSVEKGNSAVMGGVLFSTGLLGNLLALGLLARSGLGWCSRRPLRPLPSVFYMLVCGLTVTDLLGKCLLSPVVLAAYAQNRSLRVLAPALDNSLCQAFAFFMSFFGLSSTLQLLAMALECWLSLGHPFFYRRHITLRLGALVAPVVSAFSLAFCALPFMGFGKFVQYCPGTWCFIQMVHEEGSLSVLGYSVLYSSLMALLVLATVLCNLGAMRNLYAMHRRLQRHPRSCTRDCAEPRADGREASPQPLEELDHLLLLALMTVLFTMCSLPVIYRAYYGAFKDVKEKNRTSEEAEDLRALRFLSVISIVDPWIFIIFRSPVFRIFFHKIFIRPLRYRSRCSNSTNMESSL
Kind of data set: cAMP assay with washed platelets (DP inhibitory activity in vitro). As to conditions: 100 nM PGD2, cAMP by HTRF, read-out: IC50 (50% DP-inhibitory concentration in the cAMP assay). Type of data set: cell-based. The protocol: 1) Preparation of Platelet and a Method of cAMP Assay
30 ml of peripheral blood was collected from a healthy volunteer using a syringe containing one ninth amount of 3.8% sodium citrate for diagnosis. After being centrifuged at 180 g for 10 minutes at room temperature, a supernatant was collected and used as Platelet Rich Plasma (PRP). The resulting PRP was washed with wash buffer and centrifuged three times (Washed Platelet: WP) and platelets were counted by a microcell counter. WP was added to a plate in amount of 1.5×10^8/assay and the plate was treated, with 3-isobutyl-1-methylxanthin (IBMX; 0.5 mM) for 5 minutes. A reaction was initiated by adding 100 nM of PGD2 5 min after an addition of a test compound. The reaction was terminated with an addition of 1N HCl after 2 minutes and the cells were destructed using 12% triton X-100. An amount of cAMP in the supernatant was assayed by Homogeneous […] (HTRF)
For orientation: Cyclic AMP is a second messenger, typically raised through Gs and lowered through Gi signalling.

Data set [2] concerns the target T1, DP receptor. The data set is described as follows: Receptor binding assay, [3H]-PGD2, platelet membrane. As to conditions: [3H]-PGD2, human platelet membrane, on ice 2 hours. The protocol:
2) Receptor Binding Assay A prepared WP was homogenated and a membrane fraction was collected with high-speed centrifugation. A compound of the present invention or a reference compound A(No. IC-73 in WO 2003/097598) was added to the plate and [^3H]-PGD2 was also added. A platelet membrane, a protein concentration is 2 mg/mL, was added and mixed in the plate, and placed on ice for 2 hours. The reaction solution was transferred to a low protein-adsorptive filter and washed with a wash solution eight times using a cell harvester. After the final washing, water was removed sufficiently, and micoscinti was added. DP inhibitory activity was investigated by measuring [^3H] by using Micro Beta.

Data set [3] deals with Brown Norway (BN) Rats. Kind of data set: Test using OVA asthma model of rat. Type of data set: in vivo. As to conditions: 10 mg/kg p.o. once a day for three days, vs control group; for inhibition rate (%) increased hyperresponsive airway: AUC of acetylcholine response curve; for inhibition rate (%) mucus-secretion: mucin in airway lavage fluid; for inhibition rate (%) infiltration of inflammatory cells: total cell number in bronchoalveolar washings. The protocol: Brown Norway (BN) Rats were sensitized by i.p. administration of 0.1 mg/mL of ovalbumin (OVA) and 1 mg of aluminum hydroxide gel. A solution of 1% OVA was aerosolized by ultrasonic nebulizer (NE-U17) and the rats were subjected to inhalation exposure of the aerosol for 30 minutes in an exposing chamber 12, 19, 26 and 33 days after the sensitization. One hour before the 4th exposure of the antigen, compounds of the present invention were administered in a dose of 10 mg/kg p.o. once a day for three days consecutively. In a control group, 0.5% of methyl cellulose was administered in place of the compound of the present invention.
Under pentobarbital anesthesia (80 mg/kg, i.p.), acetylcholine (3.9, 7.8, 15.6, 31.3, 62.5, 125, 250 and 500 μg/kg) was injected to jugular vein of the rats successively from a lower dose at intervals of 5 minutes three days after the fourth exposure to the antigen, and immediate contractile reaction of airways (an increase of insufflation pressure) was measured by a modified method of Konnzett & Rössler. Inhibition rate of increased hyperresponsive airway against the control group was calculated based on area under curve (AUC) obtained from concentration-response curve of acetylcholine.
After the measurement of increased hyperresponsive airway was; completed, bronchoalveoli of the rats were washed with 5 mL of saline three times. Total cell number in the washings was counted by a hemacytometer under light microscope, and inhibition rates of infiltration of inflammatory cells against the control group were calculated. Further, muchin in the airway lavage fluid was measured by ELIZA method using jacalin, a muchin-binding lectin, and the inhibition rates of mucus-secretion against the control group were calculated.

For `CC(C)Oc1ccc(S(=O)(=O)N2CC[C@H](c3cn(CC(=O)O)c4ccc(Cl)cc34)C2)cc1` (as salt: TFA) [Compound I-62], the melting point (commonly the temperature, or range, at which the solid turns liquid) was 188 to 189 °C.

Consider `CC(C)Oc1ccc(S(=O)(=O)N2CC[C@@H](c3cn(CC(=O)O)c4ccc(Cl)cc34)C2)cc1` [Compound I-65], for which, in data set [1], the IC50 amounted to 0.34 nM. In data set [2], the inhibition constant Ki (commonly the dissociation constant of the complex between target and ligand, obtained from inhibition or displacement) was 2.3 nM. For the same compound, in data set [3], the “inhibition rate (%) increased hyperresponsive airway” value amounted to 62%, the “inhibition rate (%) mucus-secretion” value was 40% and the “inhibition rate (%) infiltration of inflammatory cells” value worked out at 61%.

With `CC(C)Oc1ccc(S(=O)(=O)N2CCC(c3cn(CC(=O)O)c4cc(-c5ccncc5)ccc34)C2)cc1.Cl` (stereo not drawn) [Compound I-75], the IC50 in data set [1] worked out at 1.7 nM. Besides, the affinity in data set [2], expressed as Ki, was 0.66 nM. In data set [3], the “inhibition rate (%) increased hyperresponsive airway” value came out at 58%, the “inhibition rate (%) mucus-secretion” value was found to be 77% and the “inhibition rate (%) infiltration of inflammatory cells” value came out at 71%.

In the case of `CC(C)Oc1ccc(S(=O)(=O)N2CC[C@@H](c3cn(CC(=O)O)c4ccc(Cl)cc34)C2)cc1` (as salt: TFA) [Compound I-65], the melting point was 167 °C.
